The subject of series [1] is Proteus vulgaris. In words: Antibacterial activity against Proteus vulgaris NCTC 4635 cultured in MH medium assessed as reduction in bacterial growth incubated for 48 hrs by microbroth dilution method. It is filed as functional. To be noted: NCTC 4635, 48 h.
The test system of series [2] is Staphylococcus aureus. The experiment in a line: Bactericidal activity against Staphylococcus aureus ATCC 6538 cultured in MH medium assessed as reduction in bacterial survival incubated for 48 hrs by microbroth dilution method. It counts as functional. To be noted: ATCC 6538, 48 h. On the technique in general: Dilution methods test growth across graded concentrations, often in twofold steps.

For series [3], the system named is Proteus vulgaris. In words: Bactericidal activity against Proteus vulgaris NCTC 4635 cultured in MH medium assessed as reduction in bacterial survival incubated for 48 hrs by microbroth dilution method. As to conditions: NCTC 4635, 48 h. It counts as functional.
Series [4] relates to Bacillus spizizenii. In words: Antibacterial activity against Bacillus subtilis ATCC 6633 cultured in MH medium assessed as reduction in bacterial growth incubated for 48 hrs by microbroth dilution method. It is filed as functional. As to conditions: ATCC 6633, 48 h.
Series [5] relates to HEK293. In words: Cytotoxicity against human HEK293 cells assessed as changes in cell morphology upto 20 uM incubated for 72 hrs by MTT assay. It is filed as cell-based. As to conditions: hek293, 72 h. For orientation: Tetrazolium assays rely on reduction of a dye to a coloured formazan, in cell work by metabolically active cells.
For series [6], the system named is Staphylococcus aureus. The experiment in a line: Bactericidal activity against methicillin resistant Staphylococcus aureus 6347 cultured in MH medium assessed as reduction in bacterial survival incubated for 48 hrs by microbroth dilution method. It counts as functional. As to conditions: Staphylococcus aureus, 6347, 48 h.
Series [7] has as its system Staphylococcus epidermidis. In words: Antibacterial activity against methicillin resistant Staphylococcus epidermidis ATCC 13199 cultured in MH medium assessed as reduction in bacterial growth incubated for 48 hrs by microbroth dilution method. It counts as functional. To be noted: ATCC 13199, 48 h.
For series [8], the system named is Staphylococcus aureus. The experiment in a line: Antibacterial activity against methicillin resistant Staphylococcus aureus N315 cultured in MH medium assessed as reduction in bacterial growth incubated for 48 hrs by microbroth dilution method. It counts as functional. To be noted: N315, 48 h.
Series [9] has as its system Pseudomonas aeruginosa. In words: Bactericidal activity against Pseudomonas aeruginosa ATCC 9027 cultured in MH medium assessed as reduction in bacterial survival incubated for 48 hrs by microbroth dilution method. It is filed as functional. To be noted: ATCC 9027, 48 h.
The subject of series [10] is Pseudomonas aeruginosa. The experiment in a line: Antibacterial activity against Pseudomonas aeruginosa ATCC 9027 cultured in MH medium assessed as reduction in bacterial growth incubated for 48 hrs by microbroth dilution method. It is filed as functional. As to conditions: ATCC 9027, 48 h.
For series [11], the system named is Staphylococcus epidermidis. The experiment in a line: Antibacterial activity against Staphylococcus epidermidis ATCC 14990 cultured in MH medium assessed as reduction in bacterial growth incubated for 48 hrs by microbroth dilution method. It counts as functional. As to conditions: ATCC 14990, 48 h.
The test system of series [12] is Serratia marcescens. The experiment in a line: Antibacterial activity against Serratia marcescens ATCC 12795 cultured in MH medium assessed as reduction in bacterial growth incubated for 48 hrs by microbroth dilution method. To be noted: ATCC 12795, 48 h. It counts as functional.
The subject of series [13] is Serratia marcescens. The experiment in a line: Bactericidal activity against Serratia marcescens ATCC 12795 cultured in MH medium assessed as reduction in bacterial survival incubated for 48 hrs by microbroth dilution method. It counts as functional. To be noted: ATCC 12795, 48 h.
Series [14] relates to Streptococcus pneumoniae. In words: Antibacterial activity against Streptococcus pneumoniae cultured in MH medium assessed as reduction in bacterial growth incubated for 48 hrs by microbroth dilution method. It is filed as functional.
In series [15] the test system is Bacillus spizizenii. In words: Bactericidal activity against Bacillus subtilis ATCC 6633 cultured in MH medium assessed as reduction in bacterial survival incubated for 48 hrs by microbroth dilution method. It is filed as functional. To be noted: ATCC 6633, 48 h.
The test system of series [16] is Staphylococcus epidermidis. The experiment in a line: Bactericidal activity against methicillin resistant Staphylococcus epidermidis ATCC 13199 cultured in MH medium assessed as reduction in bacterial survival incubated for 48 hrs by microbroth dilution method. It counts as functional. As to conditions: ATCC 13199, 48 h.
The test system of series [17] is Staphylococcus aureus. The experiment in a line: Antibacterial activity against Staphylococcus aureus ATCC 6538 cultured in MH medium assessed as reduction in bacterial growth incubated for 48 hrs by microbroth dilution method. It is filed as functional. As to conditions: ATCC 6538, 48 h.
Series [18] can be described thus: Lipophilicity, log k of the compound at 100 ug/ml by micellar electrokinetic chromatography. It counts as physicochemical.
The subject of series [19] is Staphylococcus epidermidis. The experiment in a line: Bactericidal activity against Staphylococcus epidermidis ATCC 14990 cultured in MH medium assessed as reduction in bacterial survival incubated for 48 hrs by microbroth dilution method. It is filed as functional. To be noted: ATCC 14990, 48 h.
In series [20] the test system is Enterococcus hirae. The experiment in a line: Antibacterial activity against Enterococcus hirae ATCC 1052 cultured in BHI medium assessed as reduction in bacterial growth incubated for 48 hrs by microbroth dilution method. It counts as functional. To be noted: ATCC 1052, 48 h.
In series [21] the test system is Staphylococcus aureus. The experiment in a line: Bactericidal activity against methicillin resistant Staphylococcus aureus N315 cultured in MH medium assessed as reduction in bacterial survival incubated for 48 hrs by microbroth dilution method. To be noted: N315, 48 h. It is filed as functional.
Series [22] relates to Staphylococcus aureus. The experiment in a line: Antibacterial activity against methicillin resistant Staphylococcus aureus 6347 cultured in MH medium assessed as reduction in bacterial growth incubated for 48 hrs by microbroth dilution method. It counts as functional. To be noted: Staphylococcus aureus, 6347, 48 h.
Series [23] concerns Escherichia coli. The experiment in a line: Bactericidal activity against Escherichia coli ATCC 8739 cultured in MH medium assessed as reduction in bacterial survival incubated for 48 hrs by microbroth dilution method. As to conditions: ATCC 8739, 48 h. It counts as functional.
Series [24] concerns Escherichia coli. The experiment in a line: Antibacterial activity against Escherichia coli ATCC 8739 cultured in MH medium assessed as reduction in bacterial growth incubated for 48 hrs by microbroth dilution method. It counts as functional. To be noted: ATCC 8739, 48 h.
In series [25] the test system is HEK293. The experiment in a line: Cytotoxicity against human HEK293 cells assessed as cell viability upto 20 uM incubated for 72 hrs by MTT assay. It is filed as cell-based. As to conditions: hek293, 72 h.
Series [26] relates to Enterococcus hirae. The experiment in a line: Bactericidal activity against Enterococcus hirae ATCC 1052 cultured in BHI medium assessed as reduction in bacterial survival incubated for 48 hrs by microbroth dilution method. To be noted: ATCC 1052, 48 h. It counts as functional.
Series [27] has as its system Streptococcus pneumoniae. In words: Bactericidal activity against Streptococcus pneumoniae cultured in MH medium assessed as reduction in bacterial survival incubated for 48 hrs by microbroth dilution method. It counts as functional.

The text below walks through data of ChEMBL document CHEMBL4396913, “Synthesis and biological evaluation of hybrid quinolone-based quaternary ammonium antibacterial agents” (Eur J Med Chem, 2019).

≈ marks a conversion by molar mass, not a printed value.

In the case of `CCn1cc(C(=O)O)c(=O)c2cc(F)c(N3CC[N+]4(CC3)CN3C(C)=CC(C)=C(C(=O)O)C3=N4)cc21.[Cl-]`, the minimal inhibitory concentration (MIC) – broadly, the smallest concentration in the dilution series that meets the test's criterion for growth inhibition – turned out to be 0.25 µg/mL in series [1]; 16 µg/mL in series [4]; 32 µg/mL in series [7]; 128 µg/mL in series [8]; 256 µg/mL in series [10]; 64 µg/mL in series [11]. Further, the MIC was 64 µg/mL in [12]; above 512 µg/mL in [14]; 64 µg/mL in [17]; above 512 µg/mL in [20]; 64 µg/mL in series [22]; 4 µg/mL in series [24]. Moreover, the MBC – broadly, the lowest tested concentration that kills the bacteria rather than only halting them – was 128 µg/mL in [2]; 0.5 µg/mL in series [3]; 128 µg/mL in series [6]; above 512 µg/mL in series [9]; 128 µg/mL in [13]; 64 µg/mL in series [15]. The MBC stood at 32 µg/mL in series [16], 128 µg/mL in series [19], 128 µg/mL in [21] and 8 µg/mL in series [23]. Moreover, the Activity entry in series [5] and in [25] was “Non-Toxic” each time. Moreover, the “log K” value in series [18] is given as -0.2721.

Regarding `COc1c(N2C[C@@H]3CCCN[C@@H]3C2)c(F)cc2c(=O)c(C(=O)O)cn(C3CC3)c12` [MOXIFLOXACIN], the minimal inhibitory concentration (MIC) was found to be 0.004 µg/mL (≈ 0.00996 µM) in series [1]; 0.032 µg/mL (≈ 0.0797 µM) in series [4]; 0.125 µg/mL (≈ 0.311 µM) in series [8]; 16 µg/mL (≈ 39.9 µM) in series [10]; 0.063 µg/mL (≈ 0.157 µM) in series [11]; 0.25 µg/mL (≈ 0.623 µM) in [12]. Besides, the MIC came out at 16 µg/mL (≈ 39.9 µM) in series [14]; 0.125 µg/mL (≈ 0.311 µM) in series [17]; 16 µg/mL (≈ 39.9 µM) in [20]; 0.063 µg/mL (≈ 0.157 µM) in series [22]; 0.125 µg/mL (≈ 0.311 µM) in series [24]. For the same compound, the minimal bactericidal concentration (MBC) was 0.125 µg/mL (≈ 0.311 µM) in series [2]; 0.008 µg/mL (≈ 0.0199 µM) in series [3]; 0.063 µg/mL (≈ 0.157 µM) in series [6]; 16 µg/mL (≈ 39.9 µM) in series [9]; 0.5 µg/mL (≈ 1.25 µM) in series [13]; 0.032 µg/mL (≈ 0.0797 µM) in series [15]. Moreover, the MBC in series [19] is 0.125 µg/mL (≈ 0.311 µM); in series [21] it was 0.25 µg/mL (≈ 0.623 µM); in [23], 0.25 µg/mL (≈ 0.623 µM); in series [26], 32 µg/mL (≈ 79.7 µM); in series [27], 64 µg/mL (≈ 159 µM).

`CCn1cc(C(=O)O)c(=O)c2cnc(N3CC[N+]4(CC3)CN3C(=N4)C(C(=O)O)=Cc4ccccc43)nc21.[Cl-]`: the MIC in series [1] was found to be 16 µg/mL; in [4], 64 µg/mL; in series [7], 8 µg/mL; in series [8], 512 µg/mL; in series [10], 128 µg/mL; in [11], 256 µg/mL. The MIC in series [12] was 128 µg/mL; in series [14], above 512 µg/mL; in series [17], 512 µg/mL; in series [20], above 512 µg/mL; in [22] it was 256 µg/mL; in series [24], 16 µg/mL. For the same compound, the MBC was found to be 512 µg/mL in series [2]; 16 µg/mL in series [3]; 256 µg/mL in [6]; 128 µg/mL in series [9]; 128 µg/mL in [13]; 64 µg/mL in series [15]. The MBC was 16 µg/mL in series [16], 256 µg/mL in [19], 512 µg/mL in series [21] and 16 µg/mL in series [23]. Further, the Activity entry in series [5] and in series [25] was “Non-Toxic” each time. Moreover, the “log K” value in [18] is given as -0.4434.

`CCn1cc(C(=O)O)c(=O)c2cnc(N3CCNCC3)nc21` [PIPEMIDIC ACID]: the MIC worked out at 0.004 µg/mL (≈ 0.0132 µM) in [1]; 2 µg/mL (≈ 6.59 µM) in [4]; 32 µg/mL (≈ 105 µM) in [7]; 32 µg/mL (≈ 105 µM) in [8]; 8 µg/mL (≈ 26.4 µM) in series [10]; 32 µg/mL (≈ 105 µM) in [11]. Besides, the MIC in [12] was 2 µg/mL (≈ 6.59 µM); in [14], above 512 µg/mL; in series [17] it was 64 µg/mL (≈ 211 µM); in series [20] it was above 512 µg/mL; in [22] it was 32 µg/mL (≈ 105 µM); in series [24] it was 2 µg/mL (≈ 6.59 µM). Further, the MBC is 128 µg/mL (≈ 422 µM) in [2]; 0.004 µg/mL (≈ 0.0132 µM) in [3]; 32 µg/mL (≈ 105 µM) in [6]; 8 µg/mL (≈ 26.4 µM) in [9]; 2 µg/mL (≈ 6.59 µM) in series [13]; 2 µg/mL (≈ 6.59 µM) in [15]. Further, the MBC in series [16] was 64 µg/mL (≈ 211 µM); in series [19], 32 µg/mL (≈ 105 µM); in series [21] it was 32 µg/mL (≈ 105 µM); in series [23] it was 2 µg/mL (≈ 6.59 µM). Further, the “log K” value in series [18] was -0.1697.
